Reference: paper PMC6321136, “Combined In Vitro Studies and in Silico Target Fishing for the Evaluation of the Biological Activities of Diphylleia cymosa and Podophyllum hexandrum” (Molecules, 2018)
Where two headings read alike, the source gives them in different places.

Tests used:
[1] = system: Anti-Inflammatory model; parameters: method as in PubChem Bioassay AID 435020; conditions: ref PubChem Bioassay AID 435020; cited from earlier work
[2] = system: Anticancer, colon; parameters: method as in PubChem Bioassay AID 1834; conditions: ref PubChem Bioassay AID 1834; cited from earlier work
[3] = system: Antagonist, retinoid-related orphan receptor gamma (ROR-gamma); parameters: method as in PubChem Bioassay AID 1159521; conditions: ref PubChem Bioassay AID 1159521; cited from earlier work
[4] = system: Cytotoxicity, Agonist, hypoxia; parameters: method as in PubChem Bioassay AID 1224844; conditions: ref PubChem Bioassay AID 1224844; cited from earlier work
[5] = system: Cell Cycle Modulation (counterscreen); parameters: method as in PubChem Bioassay AID 1117349; conditions: ref PubChem Bioassay AID 1117349; cited from earlier work
[6] = system: Antagonist, androgen receptor (AR); parameters: method as in PubChem Bioassay AID 743042; conditions: ref PubChem Bioassay AID 743042; cited from earlier work
[7] = system: Antagonist, retinoic acid receptor (RAR); parameters: method as in PubChem Bioassay AID 1159555; conditions: ref PubChem Bioassay AID 1159555; cited from earlier work
[8] = system: Agonist, retinoic acid receptor (RAR); parameters: method as in PubChem Bioassay AID 1159553; conditions: ref PubChem Bioassay AID 1159553; cited from earlier work
[9] = system: Cytotoxicity, Agonist, peroxisome proliferator-activated receptor delta (PPARd); parameters: method as in PubChem Bioassay AID 743211; conditions: ref PubChem Bioassay AID 743211; cited from earlier work
[10] = system: 1-acylglycerol-3-phosphate O-acyltransferase ABHD5; parameters: method as in PubChem Bioassay AID 493027; conditions: ref PubChem Bioassay AID 493027; cited from earlier work
[11] = system: Activate, aryl hydrocarbon receptor (AhR); parameters: method as in PubChem Bioassay AID 743122; conditions: ref PubChem Bioassay AID 743122; cited from earlier work
[12] = system: Anticancer, Leukemia; parameters: method as in PubChem Bioassay AID 250; conditions: ref PubChem Bioassay AID 250; cited from earlier work
[13] = system: Antagonist, androgen receptor (AR); parameters: method as in PubChem Bioassay AID 743063; conditions: ref PubChem Bioassay AID 743063; cited from earlier work
[14] = system: Anticancer, Lung Tumor; parameters: method as in PubChem Bioassay AID 270; conditions: ref PubChem Bioassay AID 270; cited from earlier work
[15] = system: Salmonella choleraesuis subs. choleraesuis sorotype Typhi BM/Panama-TY2; experiment: Antibacterial microdilution assay; format: cell-based
[16] = Thiobarbituric acid reactive substances (TBARS) assay; parameters: species or system bovine
Method: The evaluation of antioxidant activity using the TBARS assay, with adaptations. Briefly, the samples were solubilized in methanol (50.0 to 31.25 μg/mL) and a portion of 25 μL of each extract solution was added to 10 mL test tubes in triplicate (two reaction tubes and one control). The tubes corresponding to the blank, negative and positive controls were prepared by adding 25 μL of deionized water, MeOH or propylgalate (Sigma, St. Louis, MO, USA, 0.1 mM), respectively. The phospholipid liposomes were prepared using bovine brain extract type VII (Sigma Aldrich, St. Louis, MO, USA, 10 mg/mL) in phosphate buffered saline (PBS) solution. The suspension was subjected to an ultrasonic bath until the formation of the liposomes. […] The butanolic phase was removed and transferred to a 96-well microplate, and the absorbance was recorded on a Multiskan Go microplate reader (Thermo Scientific, Whaltham, MA, USA) at 532 nm. The percentage of inhibition (%I) of lipid peroxidation was calculated as: %I = ((AC − AS)/AC) × 100 where AC is the absorbance of control, AS is the absorbance of samples. Assays were performed in triplicate and IC50 values were determined by non-linear regression using GraphPad Prism, version 6.0 (GraphPad Software, San Diego, CA, USA). […]

[17] = system: Agonist, androgen receptor (AR); parameters: method as in PubChem Bioassay AID 743040; conditions: ref PubChem Bioassay AID 743040; cited from earlier work
[18] = system: THP-1 cells; conditions: THP-1 cells at 10 µM; ref [69]; cited from earlier work
[19] = system: Cytotoxicity; parameters: method as in PubChem Bioassay AID 624476; conditions: ref PubChem Bioassay AID 624476; cited from earlier work
[20] = system: Cytotoxicity, Activators, heat shock response (counterscreen); parameters: method as in PubChem Bioassay AID 743209; conditions: ref PubChem Bioassay AID 743209; cited from earlier work

## COc1cc([C@@H]2c3cc4c(cc3[C@H](O)[C@H]3COC(=O)[C@H]23)OCO4)cc(OC)c1OC [Podophyllotoxin, podophyllotoxin]
[1]
  Exper. Activity: Active
[2]
  Exper. Activity: Active
[3]
  Exper. Activity: Active
[4]
  Exper. Activity: Inactive
[5]
  Exper. Activity: Active
[6]
  Exper. Activity: Inactive
[7]
  Exper. Activity: Active
[8]
  Exper. Activity: Inactive
[9]
  Exper. Activity: Inactive
[10]
  Exper. Activity: Inactive
[11]
  Exper. Activity: Active
[12]
  Exper. Activity: Inactive
[13]
  Exper. Activity: Active
[14]
  Exper. Activity: Inactive
[15]; 250 µg/mL
  Salmonella Typhi Mean ± SD (percentage of inhibition of microbial growth): No antibacterial activity
[15]; Salmonella enterica, read-out: Salmonella Typhi Mean ± SD (percentage of inhibition of microbial growth)
  inhibition at 250 µg/mL: 31.6 ± 7.54%
[16]
  Antioxidant Activity (IC50-µg/mL) TBARS Assay: >50 µg/mL
[17]
  Exper. Activity: Inactive
[18]
  cytotoxicity: no cytotoxicity was observed
[19]
  Exper. Activity: Inactive
[20]
  Exper. Activity: Inactive
